From patent US6569878B1, “Substituted 4-amino-thiazol-2-yl compounds as cyclin-dependent kinase inhibitors” (Agouron Pharmaceuticals Inc., priority 1997, dated 2003)

Tests used:
[1] = target: T1, complex of human CDK4 and genetically truncated (1-264) cyclin D3 (Homo sapiens, UniProt P11802); assay: Inhibition of CDK4/cyclin D retinoblastoma kinase activity (D-type cyclin is truncated D3); assay type: biochemical; settings: superscript c: D-type cyclin is truncated D3; read-out: Ki CDK 4/D
T1 construct: made in house; host or cells: insect cells, co-infected with baculovirus
T1 sequence (P11802 whole entry, the tested form may be a part): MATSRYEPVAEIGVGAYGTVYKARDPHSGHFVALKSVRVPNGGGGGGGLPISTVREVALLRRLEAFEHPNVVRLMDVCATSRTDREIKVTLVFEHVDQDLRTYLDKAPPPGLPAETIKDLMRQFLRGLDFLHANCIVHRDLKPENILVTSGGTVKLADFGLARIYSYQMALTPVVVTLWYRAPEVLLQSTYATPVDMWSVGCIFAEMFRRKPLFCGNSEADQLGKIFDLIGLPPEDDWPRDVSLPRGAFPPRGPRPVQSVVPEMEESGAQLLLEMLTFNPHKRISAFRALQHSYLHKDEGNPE
T1 sequence (P30281 1-264 partner limits assumed): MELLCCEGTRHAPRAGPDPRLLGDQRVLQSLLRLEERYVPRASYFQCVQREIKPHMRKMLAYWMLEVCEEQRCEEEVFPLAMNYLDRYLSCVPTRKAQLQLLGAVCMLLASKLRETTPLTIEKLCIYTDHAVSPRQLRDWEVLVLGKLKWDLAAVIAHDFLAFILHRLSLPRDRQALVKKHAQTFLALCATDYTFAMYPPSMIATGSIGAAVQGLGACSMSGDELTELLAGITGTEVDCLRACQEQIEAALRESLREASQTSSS
Experimental: Cyclin-dependent kinase activity was measured by quantifying the enzyme-catalyzed, time-dependent incorporation of radioactive phosphate from [^32P]ATP or [^33P]ATP into a protein substrate. Unless noted otherwise, assays were performed in 96-well plates in a total volume of 50 μL, in the presence of 10 mM HEPES (N-[2-hydroxyethyl]piperazine-N′-[2-ethanesulfonic acid]) (pH 7.4), 10 mM MgCl2, 25 μM adenosine triphosphate (ATP), 1 mg/mL ovalbumin, 5 μg/mL leupeptin, 1 mM dithiothreitol, 10 mM β-glycerophosphate, 0.1 mM sodium vanadate, 1 mM sodium fluoride, 2.5 mM ethylene glycol-bis(β-aminoethyl ether)-N,N,N′N′-tetraacetic acid (EGTA), 2% (v/v) dimethylsulfoxide, and 0.03-0.4 μCi [^32/33P]ATP per reaction. Reactions were initiated with enzyme, incubated at 30° C., and terminated after 20 minutes by the addition of ethylenediaminetetraacetic acid (EDTA) to 250 mM. The phosphorylated substrate was then captured on a nitrocellulose or phosphocellulose membrane using a 96-well filtration manifold, and unincorporated radioactivity was removed by repeated washing with 0.85% phosphoric acid. Radioactivity was quantified by exposing the dried membranes to a phosphorimager.
Apparent Ki values were measured by assaying enzyme activity in the presence of different inhibitor compound concentrations and subtracting the background radioactivity measured in the absence of enzyme. The kinetic parameters (kcat, Km for ATP) were measured for each enzyme under the usual assay conditions by determining the dependence of initial rates on ATP concentration. Inhibition data were fit to an equation for competitive inhibition using Kaleidagraph (Synergy Software), or were fit to an equation for competitive tight-binding inhibition using the software KineTic (BioKin, Ltd.).
A complex of human CDK4 and cyclin D3, or a complex of cyclin D1 and a fusion protein of human CDK4 and gluathione-S-transferase (GST-CDK4), or a complex of human CDK4 and genetically truncated (1-264) cyclin D3, was purified using traditional biochemical chromatographic techniques from insect cells that had been co-infected with the corresponding baculovirus expression vectors (see e.g., Meijer and Kim, “Chemical Inhibitors of Cyclin-Dependent Kinases,” Methods in Enzymol,. vol. 283 (1997), pp. 113-128.). The enzyme complex (5 or 50 nM) was assayed with 0.3-0.5 μg of purified recombinant retinoblastoma protein fragment (Rb) as a substrate. The engineered Rb fragment (residues 386-928 of the native retinoblastoma protein; 62.3 kDa) contains the majority of the phosphorylation sites found in the native 106-kDa protein, as well as a tag of six histidine residues for ease of purification. Phosphorylated Rb substrate was captured by microfiltration on a nitrocellulose membrane and quantified using a phosphorimager as described above. For measurement of tight-binding inhibitors, the enzyme complex concentration was lowered to 5 nM, and the assay duration was extended to 60 minutes, during which the time-dependence of product formation was linear.

CDK2/cyclin A = target: T2, CDK2/cyclin A (Homo sapiens, UniProt P24941); assay: Inhibition of CDK2/cyclin A retinoblastoma kinase activity; assay type: biochemical; settings: read-out: Ki CDK 2/A
T2 construct: made in house; host or cells: CDK2: insect cells (baculovirus); cyclin A: E. coli, then limited proteolysis
Method in brief: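 Baculovirus-expressed CDK2 with excess proteolyzed cyclin A (or purified complex), 150 nM or 5 nM, phosphorylating an Rb fragment with 25 μM [32/33P]ATP, pH 7.4, 30° C, 20 min. Filter-captured radioactivity by phosphorimager; apparent Ki from fits to competitive or tight-binding competitive inhibition using measured ATP Km.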

[2] = target: T3, human CDK1 (cdc2) and cyclin B (Homo sapiens, UniProt P06493); assay: Inhibition of CDK1(cdc2)/cyclin B histone H1 kinase activity; assay type: biochemical; settings: read-out: Ki CDK 1/B
T3 construct: purchased New England Biolabs (Beverly Mass.)
T3 sequence (P06493 whole entry): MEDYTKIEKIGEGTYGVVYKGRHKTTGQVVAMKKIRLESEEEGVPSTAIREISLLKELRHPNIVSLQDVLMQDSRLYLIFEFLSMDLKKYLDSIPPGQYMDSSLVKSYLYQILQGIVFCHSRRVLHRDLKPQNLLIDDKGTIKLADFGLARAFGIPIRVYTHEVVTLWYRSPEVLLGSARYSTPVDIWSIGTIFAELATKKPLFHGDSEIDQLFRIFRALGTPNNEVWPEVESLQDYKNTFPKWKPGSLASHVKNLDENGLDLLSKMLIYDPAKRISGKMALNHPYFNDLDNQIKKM
T3 sequence (P14635 whole entry partner): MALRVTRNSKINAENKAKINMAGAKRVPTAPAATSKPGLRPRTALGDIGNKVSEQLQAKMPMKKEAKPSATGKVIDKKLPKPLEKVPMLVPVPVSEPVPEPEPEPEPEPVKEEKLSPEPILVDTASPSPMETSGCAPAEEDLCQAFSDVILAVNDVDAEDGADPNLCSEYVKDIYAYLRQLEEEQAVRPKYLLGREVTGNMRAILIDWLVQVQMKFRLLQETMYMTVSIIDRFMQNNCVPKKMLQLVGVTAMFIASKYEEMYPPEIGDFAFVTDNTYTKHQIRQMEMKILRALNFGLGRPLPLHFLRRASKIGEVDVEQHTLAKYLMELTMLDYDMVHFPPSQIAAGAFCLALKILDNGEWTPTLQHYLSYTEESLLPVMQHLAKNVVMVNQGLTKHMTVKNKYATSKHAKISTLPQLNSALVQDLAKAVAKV
Method in brief: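 CDK1/cyclin B (commercial, or CDK1/GST-cyclin B1 from co-infected insect cells) phosphorylated histone H1 with 25 μM [32/33P]ATP at pH 7.4, 30° C for 20 min, 2% DMSO. Product captured on phosphocellulose and read by phosphorimager; apparent Ki from competitive or tight-binding fits, with Km for ATP determined.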

HCT116 = assay: Inhibition of cell growth, MTT assay, HCT116; assay type: cell-based, human; settings: Homo sapiens, HCT-116
Method in brief: (§1)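 Cells rested 4 h after plating, then exposed to graded compound concentrations in 0.5% (v/v) DMSO for four to six days (cell-type dependent) at 37° C, 5% CO2. Viability was read by MTT (0.2 mg/mL final, 4 h at 37° C), with DMSO-solubilized formazan measured at 540 nm.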

U2-OS = assay: Inhibition of cell growth, MTT assay, U2-OS; assay type: cell-based; settings: Homo sapiens, U2OS
Method in brief: as §1

Saos-2 = assay: Inhibition of cell growth, MTT assay, Saos-2; assay type: cell-based; settings: Homo sapiens; Saos-2, MTT assay
Method in brief: as §1

[3] = target: T4, complex of human CDK4 and cyclin D3 (Homo sapiens, UniProt P11802); assay: Inhibition of CDK4/cyclin D retinoblastoma kinase activity (D-type cyclin is D3); assay type: biochemical; settings: superscript a: D-type cyclin is D3; apparent Ki; read-out: Ki CDK 4/D
T4 construct: made in house; host or cells: insect cells, co-infected with baculovirus
T4 sequence (P11802 whole entry): as the sequence (P11802 whole entry, the tested form may be a part) above
T4 sequence (P30281 whole entry partner): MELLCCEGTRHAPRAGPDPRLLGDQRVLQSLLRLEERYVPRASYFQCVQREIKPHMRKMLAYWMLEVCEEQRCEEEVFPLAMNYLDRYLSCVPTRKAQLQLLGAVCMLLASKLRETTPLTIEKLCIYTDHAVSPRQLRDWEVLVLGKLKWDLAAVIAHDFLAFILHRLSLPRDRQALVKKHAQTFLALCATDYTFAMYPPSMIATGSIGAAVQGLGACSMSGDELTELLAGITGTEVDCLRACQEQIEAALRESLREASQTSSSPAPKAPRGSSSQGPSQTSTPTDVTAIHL
Method in brief: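 Apparent Ki derived by fitting background-corrected activity to competitive (or, for tight binders, competitive tight-binding) equations with measured ATP Km. Rb phosphorylation by radiolabelled ATP was measured at 30°C, 20 min standard or 60 min at 5 nM complex for tight binders, via nitrocellulose capture and phosphorimager.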

[4] = test system: phosphorylation of the retinoblastoma protein (pRb) in HCT-116 cells; assay: pRb immunoblotting (anti-Rb antibody); assay type: cell-based, human; settings: five micromolar of each compound for 12 hours, western blot
Experimental: (§2) The ability of compounds to inhibit phosphorylation of the retinoblastoma protein (pRb) was assessed by western blot analysis. An anti-Rb antibody was used to measure the conversion of hyper-phosphorylated pRb to hypo-phosphorylated pRb.
(§3) Human colon tumor cells (HCT-116 cells; 5×10^6) were plated on […] dishes and allowed to grow overnight. Five micromolar of each compound was added for 12 hours. The cells were then collected and centrifuged. The cell pellets were lysed by the addition of 100 μL lysis buffer (50 mM HEPES (pH 7.0), 250 mM NaCl, 5 mM ethylenediaminetetraacetic acid, 0.1% Nonidet P-40, 1 mM dithiothreitol, 2 mM sodium pyrophosphate, 1 mM sodium orthovanadate, 1 μg/ml aprotonin, 1 μg/ml leupeptin, 50 μg/ml phenylmethylsulfonyl fluoride). Forty micrograms of protein were separated by sodium dodecyl sulfate-polyacrylamide gel electrophoresis (SDS-PAGE) on a 6% gel. The proteins were transferred to nitrocellulose and blocked with 5% blocking buffer in Tris-buffered saline overnight. The anti-Rb antibody (Pharmingen), the anti-phospho-Rb (Ser 780) antibody (MBL), and secondary antibody were incubated for 1 hour at room temperature followed by three wash steps in 0.01% Tween-20 in Tris-buffered saline. The Rb protein was detected using chemiluminescence according to the manufacturer (Amersham).

[5] = test system: pRb phosphorylation at serine 780 in HCT-116 cells; assay: pRb immunoblotting (anti-phospho-Rb (ser780) antibody); assay type: cell-based, human; settings: five micromolar of each compound for 12 hours, western blot, anti-phospho-Rb (Ser 780) antibody
Experimental: as §2, §3

| SMILES | Ki [1] [nM] | Ki (CDK2/cyclin A) [nM] | Ki [2] [nM] | IC50 (HCT116) [nM] | IC90 (HCT116) [nM] | IC50 (U2-OS) [nM] | IC90 (U2-OS) [nM] | IC50 (Saos-2) [nM] | IC90 (Saos-2) [nM] | Ki [3] [nM] | Inhibits pRb phosphorylation [4] | Inhibits pRb (ser 780) phosphorylation [5] |
| --- | --- | --- | --- | --- | --- | --- | --- | --- | --- | --- | --- | --- |
| C[C@@H]1CN(c2ccc(Nc3nc(N)c(C(=O)c4c(F)cccc4F)s3)cc2)CCN1C [C(124), {4-Amino-2-[4-(3R,4-dimethyl-piperazin-1-yl)-phenylamino]-thiazol-5-yl}-(2,6-difluoro-phenyl)-methanone] | 17 | 611 | 680 | 540 | 1600 | 1300 | 2500 | 980 | 1600 |  |  |  |
| CC1(C)CN(c2ccc(Nc3nc(N)c(C(=O)c4c(F)cccc4F)s3)cc2)CCN1 [J(6), {4-Amino-2-[4-(3,3-dimethyl-piperazin-1-yl)-phenylamino]-thiazol-5-yl}-(2,6-difluoro-phenyl)-methanone] | 8.1 | 548 | 511 | 260 | 600 | 510 | 1300 | 470 | 770 |  |  |  |
| C[C@H]1CN(c2ccc(Nc3nc(N)c(C(=O)c4c(F)cccc4F)s3)cc2)CCN1C [C(125), {4-Amino-2-[4-(3S,4-dimethyl-piperazin-1-yl)-phenylamino]-thiazol-5-yl}-(2,6-difluoro-phenyl)-methanone] | 5.4 | 602 | 650 | 620 | 1800 | 1200 | 2300 | 900 | 1500 |  |  |  |
| Cc1ccsc1C(=O)c1sc(Nc2ccc(N(C)CCN(C)C)cc2)nc1N [C(117), (4-Amino-2-{4-[(2-dimethylamino-ethyl)-methyl-amino]-phenylamino}-thiazol-5-yl)-(3-methyl-thiophen-2-yl)-methanone] | 10 | 423 | 417 | 1800 | 2900 | 900 | 1700 | 890 | 1500 |  |  |  |
| Nc1nc(Nc2ccc(N3CCNCC3)cc2)sc1C(=O)c1c(F)cc(F)cc1F [J(3), [4-Amino-2-(4-piperazin-1-yl-phenylamino)-thiazol-5-yl]-(2,4,6-trifluoro-phenyl)-methanone] | 19 | 572 | 2000 | 900 | 2800 | 2900 | 5200 | 2200 | 4900 | 15 |  |  |
| Nc1nc(Nc2ccc(S(N)(=O)=O)cc2)sc1C(=O)c1c(F)cc(F)cc1F [C(115), 4-[4-Amino-5-(2,4,6-trifluoro-benzoyl)-thiazol-2-yl-amino]-benzenesulfonamide] | 55 | 18 | 50 |  |  | 2700 | 5000 | 800 | 2200 | 57 |  |  |
| Nc1nc(Nc2ccc(S(N)(=O)=O)cc2)sc1C(=O)c1sc(Br)cc1Br [C(73), 4-[4-Amino-5-(3,5-dibromo-thiophene-2-carbonyl)-thiazol-2-ylamino]-benzenesulfonamide] |  | 6.8 | 20 | 1400 | 3400 | 4100 | 9500 | 1300 | 5000 | 6.3 | + | + |
| COc1ccc(Nc2nc(N)c(C(=O)c3ccccc3C#N)s2)cc1 [F, 2-[4-Amino-2-(4-methoxy-phenylamino)-thiazole-5-carbonyl]-benzonitrile] |  | 350 | 200 | 1000 | 2600 | 1000 | 20000 | 1000 | 1600 | 40.7 | − | − |
| Cc1cc([N+](=O)[O-])sc1C(=O)c1sc(Nc2ccc(N3CCN(C)CC3)cc2)nc1N [C(94), {4-Amino-2-[4-(4-methyl-piperazin-1-yl)-phenylamino]-thiazol-5-yl}-(3-methyl-5-nitro-thiophen-2-yl)-methanone] |  | 1040 | 1410 | 1300 | 3100 | 3400 | 6000 | 2200 | 5000 | 41 | + | + |
